The results in this text go back to US8332028B2, “Protected lithium electrodes for electro-transport drug delivery” (PolyPlus Battery Company, priority 2006, dated 2012).

The data set in a line: in vitro Li delivery through pig skin in a flow-through Li-AgCl cell (protected Li metal foil donor electrode). In kind it is in vitro ADME. The procedure:
The glass receptor compartment was similar to one described by Phipps et al. (1988) Solid State Ionics 28-30: 1778-1783, for ionophoretic drug delivery experiments. The receptor compartment was filled with RPMI-1640 Medium (Sigma Aldrich). The antibiotic gentamicin sulphate was added to the receptor compartment fluid to inhibit bacterial growth.
The prepared skin was stored in RPMI-1640 medium overnight before the start of the experiment. The skin was placed on the receptor chamber and kept in place and stretched out with an O-ring around the neck of the chamber. The visceral surface of the skin was in contact with the receptor fluid.
A square 1 cm×1 cm silver chloride cathode with a capacity of approximately 40 mAh was introduced into the receptor chamber through a port. A multi-channel peristaltic pump was used to create a flow of the RPMI-1640 medium through receptor compartments of several cells. In our experiments we used a flow rate of 2.1 mL/hr. Periodic sampling of the receptor compartment fluid was performed automatically. The temperature inside the water-jacketed receptor compartment was kept at 37° C. The fluid inside the receptor compartment was stirred with a magnetic stir bar.
The donor chamber was positioned over the skin. It contained Li metal foil and a protective architecture enabling the use of Li in an aqueous environment. The protective architecture comprised a 150 micron thick barrier layer composed of a glass ceramic solid electrolyte plate (AG-01 material from OHARA Corporation with ionic conductivity of ˜10^−4 S/cm) and an anolyte interlayer located between the Li surface and the glass ceramic plate barrier layer. […]
The donor-acceptor chamber assembly was kept in place using a clamp. […] Li content in the fluid samples taken from receptor compartment was analyzed by ICP-MS.
The rate of Li delivery into the receptor compartment was calculated as a product of Li concentration and the flow rate of the receptor fluid.

Consider `[Li]` [Li, lithium], for which the “Li content in receptor fluid samples, comparison of current densities” value (0.2 mA/cm^2 vs 0.1 mA/cm^2, FIG. 9) is listed as “significantly larger for the rate of 0.2 mA/cm^2 than for 0.1 mA/cm^2”. The “initial Li content of the receptor solution” value (before current passing) is no more than 6 µg/L. In addition, the “Li content in receptor fluid samples over time” value (constant current 0.1 mA/cm^2 (27 hrs) and 0.2 mA/cm^2 (24 hrs), 37° C., RPMI-1640 receptor fluid, ICP-MS, FIG. 9) is on record as “gradually increased over time”.
